Laboratory results reported in BindingDB's records for doi:10.1016/j.bmcl.2011.03.068 (The University of Utah, 2011).

Molecular target: Autotaxin (Homo sapiens, UniProt Q13822)
Assay: Inhibition of human recombinant ATX lysophospholipase activity expressed in insect sf9 cells using FS-3 fluorogenic substrate preincubated for 10 mins measured after 5 and 25 mins by fluorometric analysis

Row | Ki | Structure (SMILES)
1 | 24 nM | CCCCCCCCCCCCCC(=O)Nc1ccc(C(O)P(=O)(O)O)cc1 (configuration not stated)
2 | 24 nM | CCCCCCCCCC(=O)Nc1ccc(C(O)P(=O)(O)O)cc1 (configuration not stated)
